Test results as given in publication PMC10064330, “Reversible Dual-Covalent Molecular Locking of the 14-3-3/ERRγ Protein–Protein Interaction as a Molecular Glue Drug Discovery Approach” (Journal of the American Chemical Society, 2023).

Molecular target: T1, 14-3-3γ/ERRγ complex (Homo sapiens, UniProt P61981+P62508)
T1 construct: made in house; host or cells: E. coli NiCo21 (DE3)
Experiment: FA compound titration in HEK293 cell lysate
Type: binding
Settings: 2 mg mL^–1 HEK293 cell lysate, 5 μM 14-3-3γ, 100 nM ERRγ peptide; read-out: half-maximal complex concentration (CC50)
Method: The cell represents a complex biochemical environment composed of a high reducing potential, a pool of potential nucleophiles, and competing 14-3-3 interaction partners. To investigate molecular lock-induced complex formation in a reactive environment, we first investigated binary 14-3-3/ERRγ formation in the HEK293 cell lysate. Here, the HEK293 cell lysate was titrated to the preformed 14-3-3γ/ERRγ complex in an FA assay and incubated overnight (Figure S25a–c). […] Next, we investigated molecular lock 5-induced complex formation (Figures S25 and S26). […] Moreover, early observed cell lysate-induced abolishment of the 14-3-3γ/ERRγ complex formation was almost completely recovered upon addition of 5, to similar complex concentrations to that in the absence of the lysate. […]
Figure S25. […] (d -e) Fluorescence anisotropy studies of compound 5 (right) titrations or DMSO as negative control (left) to a preformed complex of 14 -3-3γ (5 µM, 0.16 mg/mL) and fluorescein labelled ERRγ peptide (100 nM) at various concentrations HEK293 cell lysate (up to 2 mg/mL). […]
Figure S26. […] Fluorescence anisotropy studies of compound 5 titrations (or DMSO as negative control) to a preformed complex of 14-3-3γ (5 µM) and fluorescein labelled ERRγ peptide (100 nM). Assay is performed in presence of various concentrations HEK293 cell lysate (up to 2 mg/mL) and is measured over time (every hour for 12 hours). […]

T1 sequence (P61981 whole entry, other chains not shown): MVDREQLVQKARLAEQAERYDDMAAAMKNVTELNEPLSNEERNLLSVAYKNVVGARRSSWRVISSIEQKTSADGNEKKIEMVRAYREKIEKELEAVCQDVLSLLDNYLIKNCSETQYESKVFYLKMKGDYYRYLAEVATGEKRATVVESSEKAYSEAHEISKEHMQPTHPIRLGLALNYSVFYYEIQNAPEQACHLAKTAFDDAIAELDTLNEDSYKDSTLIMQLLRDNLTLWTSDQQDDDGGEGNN

SMILES: CN(C)CCSSCCN(C)C(=O)c1ccc(C=O)c(F)c1 [compound 5]
- CC50: 240 µM
